{"source": "paper PMC5814754", "about": "“Quantitative, Wide-Spectrum Kinase Profiling in Live Cells for Assessing the Effect of Cellular ATP on Target Engagement” (Cell Chemical Biology, 2018)", "assay_in_all_cases": "NanoBRET single-dose fractional occupancy profiling of kinase/Nluc library in live HEK293 cells (Table S1)", "assay_type_in_all_cases": "binding", "design_in_all_cases": "receptor occupancy: dose or concentration left out as unconfirmed; Occupancy, % Replicate 1 / Occupancy, % Replicate 2: unit of the concentration uncertain", "key": {"[1]": {"target": "178 full-length kinases (Homo sapiens, UniProt Q5S007)", "details": "LRRK2, Nluc C"}, "[2]": {"target": "178 full-length kinases (Homo sapiens, UniProt P07333)", "details": "CSF1R, Nluc C, probe 6"}, "[3]": {"target": "178 full-length kinases (Homo sapiens, UniProt Q9NYY3)", "sequence (Q9NYY3 whole entry)": "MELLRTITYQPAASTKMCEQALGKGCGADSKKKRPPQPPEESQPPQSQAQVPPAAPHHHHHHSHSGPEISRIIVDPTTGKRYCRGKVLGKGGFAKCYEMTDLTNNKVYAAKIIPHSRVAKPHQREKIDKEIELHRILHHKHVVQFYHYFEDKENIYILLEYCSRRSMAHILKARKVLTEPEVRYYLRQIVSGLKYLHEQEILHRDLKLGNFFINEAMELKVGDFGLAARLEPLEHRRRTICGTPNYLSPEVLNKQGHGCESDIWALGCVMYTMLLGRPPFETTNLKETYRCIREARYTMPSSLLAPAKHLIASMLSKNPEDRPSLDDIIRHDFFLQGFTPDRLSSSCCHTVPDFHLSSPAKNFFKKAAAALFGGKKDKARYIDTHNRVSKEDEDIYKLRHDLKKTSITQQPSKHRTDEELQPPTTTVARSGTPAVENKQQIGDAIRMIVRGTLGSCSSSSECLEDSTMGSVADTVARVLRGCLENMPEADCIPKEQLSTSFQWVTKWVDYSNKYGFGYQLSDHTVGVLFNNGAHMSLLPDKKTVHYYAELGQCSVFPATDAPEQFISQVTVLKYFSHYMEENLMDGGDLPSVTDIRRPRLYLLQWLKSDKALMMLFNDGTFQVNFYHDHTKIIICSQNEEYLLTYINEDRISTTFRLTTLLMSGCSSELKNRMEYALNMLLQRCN", "details": "PLK2, Nluc N, probe 5 at 1 (unit uncertain)"}, "[4]": {"target": "178 full-length kinases (Homo sapiens, UniProt Q16539)", "sequence (Q16539 whole entry)": "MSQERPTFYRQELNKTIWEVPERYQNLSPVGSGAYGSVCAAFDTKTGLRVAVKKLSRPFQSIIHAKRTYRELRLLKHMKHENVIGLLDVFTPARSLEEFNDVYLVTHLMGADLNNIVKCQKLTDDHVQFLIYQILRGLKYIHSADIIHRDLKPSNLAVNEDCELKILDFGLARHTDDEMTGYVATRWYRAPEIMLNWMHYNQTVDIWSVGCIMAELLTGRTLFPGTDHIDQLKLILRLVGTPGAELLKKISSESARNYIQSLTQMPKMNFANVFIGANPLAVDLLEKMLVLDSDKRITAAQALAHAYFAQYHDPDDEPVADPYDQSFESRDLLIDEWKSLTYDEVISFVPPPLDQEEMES", "details": "MAPK14, Nluc C, probe 6 at 0.1 (unit uncertain)"}, "[5]": {"target": "178 full-length kinases (Homo sapiens, UniProt Q9BVS4)", "sequence (Q9BVS4 whole entry)": "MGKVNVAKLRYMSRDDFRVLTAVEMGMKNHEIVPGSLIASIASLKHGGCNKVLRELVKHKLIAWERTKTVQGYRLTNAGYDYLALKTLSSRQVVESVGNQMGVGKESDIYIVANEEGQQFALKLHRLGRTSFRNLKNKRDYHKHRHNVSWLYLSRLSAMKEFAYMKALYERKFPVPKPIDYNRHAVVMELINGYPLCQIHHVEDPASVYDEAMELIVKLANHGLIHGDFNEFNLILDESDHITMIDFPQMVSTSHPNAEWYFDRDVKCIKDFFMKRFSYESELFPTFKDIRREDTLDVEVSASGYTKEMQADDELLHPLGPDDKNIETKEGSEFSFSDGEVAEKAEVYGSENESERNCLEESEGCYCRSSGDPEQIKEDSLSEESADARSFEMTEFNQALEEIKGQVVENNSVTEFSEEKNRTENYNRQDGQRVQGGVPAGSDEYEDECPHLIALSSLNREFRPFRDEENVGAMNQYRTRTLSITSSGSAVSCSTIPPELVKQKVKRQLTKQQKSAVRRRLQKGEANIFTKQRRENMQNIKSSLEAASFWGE", "details": "RIOK2, Nluc N, probe 5 at 1 (unit uncertain)"}, "[6]": {"target": "178 full-length kinases (Homo sapiens, UniProt Q8NG66)", "details": "NEK11, Nluc N, probe 5 at 1 (unit uncertain)"}, "[7]": {"target": "178 full-length kinases (Homo sapiens, UniProt Q8IYT8)", "sequence (Q8IYT8 whole entry)": "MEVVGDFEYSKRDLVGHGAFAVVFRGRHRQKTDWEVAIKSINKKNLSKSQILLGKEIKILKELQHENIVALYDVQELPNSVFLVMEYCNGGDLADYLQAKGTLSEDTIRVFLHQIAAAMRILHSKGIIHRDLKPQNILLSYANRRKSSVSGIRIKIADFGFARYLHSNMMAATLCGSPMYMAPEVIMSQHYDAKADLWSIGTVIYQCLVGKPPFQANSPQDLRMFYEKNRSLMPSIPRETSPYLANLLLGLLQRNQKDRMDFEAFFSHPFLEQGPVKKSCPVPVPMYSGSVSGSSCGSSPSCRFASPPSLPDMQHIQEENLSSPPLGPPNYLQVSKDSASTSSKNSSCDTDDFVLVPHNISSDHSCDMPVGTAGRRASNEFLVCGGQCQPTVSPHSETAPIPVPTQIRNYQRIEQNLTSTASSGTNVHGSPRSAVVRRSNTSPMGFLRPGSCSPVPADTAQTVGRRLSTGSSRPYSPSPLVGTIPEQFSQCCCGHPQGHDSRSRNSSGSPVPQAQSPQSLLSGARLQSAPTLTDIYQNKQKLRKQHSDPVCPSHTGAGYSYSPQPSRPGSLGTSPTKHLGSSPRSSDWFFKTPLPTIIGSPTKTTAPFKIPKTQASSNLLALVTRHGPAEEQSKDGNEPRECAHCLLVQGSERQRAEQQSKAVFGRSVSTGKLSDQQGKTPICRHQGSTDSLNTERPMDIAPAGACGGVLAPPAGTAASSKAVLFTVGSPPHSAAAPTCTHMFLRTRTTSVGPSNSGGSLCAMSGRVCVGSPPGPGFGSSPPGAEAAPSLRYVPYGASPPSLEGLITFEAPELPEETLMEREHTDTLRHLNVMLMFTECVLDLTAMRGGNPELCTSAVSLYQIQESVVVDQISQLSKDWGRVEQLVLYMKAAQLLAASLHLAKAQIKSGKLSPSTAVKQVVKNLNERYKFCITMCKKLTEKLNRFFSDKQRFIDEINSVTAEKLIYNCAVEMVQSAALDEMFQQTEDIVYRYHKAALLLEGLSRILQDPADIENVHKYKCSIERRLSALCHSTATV", "details": "ULK2 (NP_001136082), Nluc orientation N, probe 5 at 1 (unit uncertain)"}, "[8]": {"target": "178 full-length kinases (Homo sapiens, UniProt Q00535)", "sequence (Q00535 whole entry)": "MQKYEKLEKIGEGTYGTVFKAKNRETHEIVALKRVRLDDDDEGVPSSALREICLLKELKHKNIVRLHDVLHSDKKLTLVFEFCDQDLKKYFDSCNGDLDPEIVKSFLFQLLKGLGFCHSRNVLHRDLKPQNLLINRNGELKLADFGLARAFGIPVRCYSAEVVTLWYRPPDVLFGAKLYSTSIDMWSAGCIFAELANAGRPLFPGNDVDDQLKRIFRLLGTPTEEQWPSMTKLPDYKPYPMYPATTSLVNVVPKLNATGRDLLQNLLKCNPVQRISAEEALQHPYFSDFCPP", "details": "CDK5, Nluc C, probe 5 at 1 (unit uncertain)"}, "[9]": {"target": "178 full-length kinases (Homo sapiens, UniProt Q8IWQ3)", "details": "BRSK2, Nluc N, probe 5 at 0.5 (unit uncertain)"}, "[10]": {"target": "178 full-length kinases (Homo sapiens, UniProt Q12866)", "details": "MERTK, Nluc C; read-out: Occupancy, % Replicate 2"}, "[11]": {"target": "178 full-length kinases (Homo sapiens, UniProt O75676)", "details": "RPS6KA4 (NP_001287731), Nluc orientation N, probe 5 at 0.1 (unit uncertain); replicate 1"}, "[12]": {"target": "178 full-length kinases (Homo sapiens, UniProt P57059)", "sequence (P57059 whole entry)": "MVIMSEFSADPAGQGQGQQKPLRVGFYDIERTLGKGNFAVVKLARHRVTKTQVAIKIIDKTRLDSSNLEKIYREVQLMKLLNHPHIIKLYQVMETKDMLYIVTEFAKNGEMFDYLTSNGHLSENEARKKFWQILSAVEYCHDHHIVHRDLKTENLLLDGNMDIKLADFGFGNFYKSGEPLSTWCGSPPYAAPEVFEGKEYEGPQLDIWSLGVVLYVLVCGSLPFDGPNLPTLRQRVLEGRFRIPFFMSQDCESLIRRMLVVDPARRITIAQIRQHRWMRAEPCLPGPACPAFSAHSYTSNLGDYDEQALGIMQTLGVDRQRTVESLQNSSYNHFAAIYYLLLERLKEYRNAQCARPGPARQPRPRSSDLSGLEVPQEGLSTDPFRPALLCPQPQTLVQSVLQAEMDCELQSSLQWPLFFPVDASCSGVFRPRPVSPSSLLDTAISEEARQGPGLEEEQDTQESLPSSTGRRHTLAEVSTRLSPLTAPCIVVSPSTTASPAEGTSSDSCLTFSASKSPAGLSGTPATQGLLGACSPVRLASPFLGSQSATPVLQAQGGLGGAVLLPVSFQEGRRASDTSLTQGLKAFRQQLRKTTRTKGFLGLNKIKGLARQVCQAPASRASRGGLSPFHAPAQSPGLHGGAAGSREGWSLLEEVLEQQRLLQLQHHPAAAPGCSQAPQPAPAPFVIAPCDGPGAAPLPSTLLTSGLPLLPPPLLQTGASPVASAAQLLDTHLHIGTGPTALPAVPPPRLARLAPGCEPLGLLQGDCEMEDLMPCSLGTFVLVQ", "details": "SIK1 (NP_001307572), Nluc orientation N, probe 6 at 0.1 (unit uncertain)"}, "[13]": {"target": "178 full-length kinases (Homo sapiens, UniProt Q99640)", "details": "PKMYT1, Nluc C, probe 2 at 1 (unit uncertain)"}, "[14]": {"target": "178 full-length kinases (Homo sapiens, UniProt P50750)", "details": "CDK9, Nluc N, probe 1 at 0.5 (unit uncertain)"}, "[15]": {"target": "178 full-length kinases (Homo sapiens, UniProt P54646)", "sequence (P54646 whole entry)": "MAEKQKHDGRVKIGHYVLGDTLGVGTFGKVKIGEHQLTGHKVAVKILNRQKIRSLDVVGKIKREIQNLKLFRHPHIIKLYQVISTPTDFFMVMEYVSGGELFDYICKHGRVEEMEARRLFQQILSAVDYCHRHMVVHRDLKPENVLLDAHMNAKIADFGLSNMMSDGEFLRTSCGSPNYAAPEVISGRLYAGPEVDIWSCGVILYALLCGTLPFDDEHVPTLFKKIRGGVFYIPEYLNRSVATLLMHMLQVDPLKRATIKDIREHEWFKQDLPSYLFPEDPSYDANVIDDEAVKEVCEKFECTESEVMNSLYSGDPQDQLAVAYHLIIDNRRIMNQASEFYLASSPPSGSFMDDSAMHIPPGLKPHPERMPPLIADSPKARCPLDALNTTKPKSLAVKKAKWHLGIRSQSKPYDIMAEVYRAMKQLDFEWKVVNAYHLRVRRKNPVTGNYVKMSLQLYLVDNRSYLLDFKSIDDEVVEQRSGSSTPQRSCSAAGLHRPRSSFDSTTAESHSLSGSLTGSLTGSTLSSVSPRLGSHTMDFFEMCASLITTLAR", "details": "PRKAA2, Nluc N, probe 5 at 0.5 (unit uncertain)"}, "[16]": {"target": "178 full-length kinases (Homo sapiens, UniProt Q14680)", "details": "MELK, Nluc N, probe 5 at 1 (unit uncertain)"}, "[17]": {"target": "178 full-length kinases (Homo sapiens, UniProt O95835)", "details": "LATS1, Nluc C, probe 5 at 0.5 (unit uncertain)"}, "[18]": {"target": "178 full-length kinases (Homo sapiens, UniProt Q9P286)", "sequence (Q9P286 whole entry)": "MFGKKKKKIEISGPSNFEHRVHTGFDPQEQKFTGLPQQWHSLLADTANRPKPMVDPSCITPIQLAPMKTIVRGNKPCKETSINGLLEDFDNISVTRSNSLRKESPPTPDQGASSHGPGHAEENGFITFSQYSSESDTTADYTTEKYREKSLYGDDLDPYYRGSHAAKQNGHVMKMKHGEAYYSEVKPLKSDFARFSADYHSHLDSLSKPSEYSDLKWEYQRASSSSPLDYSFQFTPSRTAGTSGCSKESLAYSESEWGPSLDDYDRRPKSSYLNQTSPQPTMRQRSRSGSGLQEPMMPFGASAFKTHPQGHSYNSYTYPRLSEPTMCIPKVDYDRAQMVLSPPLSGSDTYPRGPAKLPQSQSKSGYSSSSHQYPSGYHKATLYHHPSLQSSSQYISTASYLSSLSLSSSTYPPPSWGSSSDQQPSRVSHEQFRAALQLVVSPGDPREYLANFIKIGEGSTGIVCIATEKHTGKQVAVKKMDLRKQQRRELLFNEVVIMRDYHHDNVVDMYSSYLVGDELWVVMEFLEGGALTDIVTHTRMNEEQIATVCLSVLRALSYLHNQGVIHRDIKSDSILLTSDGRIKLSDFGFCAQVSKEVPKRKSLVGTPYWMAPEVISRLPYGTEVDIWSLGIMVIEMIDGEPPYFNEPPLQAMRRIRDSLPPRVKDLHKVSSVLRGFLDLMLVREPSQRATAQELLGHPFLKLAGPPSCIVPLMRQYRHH", "details": "PAK7, Nluc C, probe 5 at 1 (unit uncertain)"}, "[19]": {"details": "read-out: Occupancy, % Replicate 1"}, "[20]": {"details": "read-out: Occupancy, % Replicate 2"}}, "note": "Read-outs that look alike come from different tables or passages of the source.", "data": [{"smiles": "C[C@@H](Oc1cc(-c2cnn(C3CCNCC3)c2)cnc1N)c1c(Cl)ccc(F)c1Cl", "note": "[Crizotinib]", "values": [{"measurement": "receptor occupancy", "setting": "[1]; [19]", "result": 14, "unit": "%"}, {"measurement": "receptor occupancy", "setting": "[1]; [20]", "result": 31, "unit": "%"}, {"measurement": "receptor occupancy", "setting": "[2]; [19]", "result": 12, "unit": "%"}, {"measurement": "receptor occupancy", "setting": "[2]; [20]", "result": 12, "unit": "%"}, {"measurement": "Occupancy, % Replicate 1", "setting": "[3]", "result": "No Binding"}, {"measurement": "Occupancy, % Replicate 2", "setting": "[3]", "result": "No Binding"}, {"measurement": "Occupancy, % Replicate 1", "setting": "[4]", "result": "No Binding"}, {"measurement": "Occupancy, % Replicate 2", "setting": "[4]", "result": "No Binding"}, {"measurement": "Occupancy, % Replicate 1", "setting": "[5]", "result": "No Binding"}, {"measurement": "Occupancy, % Replicate 2", "setting": "[5]", "result": "No Binding"}, {"measurement": "Occupancy, % Replicate 2", "setting": "[6]", "result": "No Binding"}, {"measurement": "Occupancy, % Replicate 1", "setting": "[7]; replicate 1", "result": "No Binding"}, {"measurement": "Occupancy, % Replicate 2", "setting": "[7]; replicate 2", "result": "No Binding"}, {"measurement": "Occupancy, % Replicate 1", "setting": "[8]", "result": "No Binding"}, {"measurement": "Occupancy, % Replicate 2", "setting": "[8]", "result": "No Binding"}, {"measurement": "Occupancy, % Replicate 2", "setting": "[9]", "result": "No Binding"}, {"measurement": "receptor occupancy", "setting": "[10]", "result": 81, "unit": "%"}, {"measurement": "Occupancy, % Replicate 1", "setting": "[11]", "result": "No Binding"}, {"measurement": "Occupancy, % Replicate 1", "setting": "[12]; replicate 1", "result": "No Binding"}, {"measurement": "Occupancy, % Replicate 2", "setting": "[12]; replicate 2", "result": "No Binding"}, {"measurement": "Occupancy, % Replicate 1", "setting": "[13]", "result": "No Binding"}, {"measurement": "Occupancy, % Replicate 1", "setting": "[14]", "result": "No Binding"}, {"measurement": "Occupancy, % Replicate 2", "setting": "[14]", "result": "No Binding"}, {"measurement": "Occupancy, % Replicate 1", "setting": "[15]", "result": "No Binding"}, {"measurement": "Occupancy, % Replicate 2", "setting": "[15]", "result": "No Binding"}, {"measurement": "Occupancy, % Replicate 2", "setting": "[16]", "result": "No Binding"}, {"measurement": "Occupancy, % Replicate 1", "setting": "[17]", "result": "No Binding"}, {"measurement": "Occupancy, % Replicate 1", "setting": "[18]", "result": "No Binding"}, {"measurement": "Occupancy, % Replicate 2", "setting": "[18]", "result": "No Binding"}]}]}
